The values that follow come from US8835440B2, “Cyclic pyrimidin-4-carboxamides as CCR2 receptor antagonists for treatment of inflammation, asthma and COPD” (Boehringer Ingelheim International GmbH, priority 2008, dated 2014).

The first assay addresses T1, CCR2 (Homo sapiens, UniProt P41597).
T1 construct: Membranes were prepared from THP-1 cells; endogenous in cells; host or cells: THP-1 cells (membrane preparation)
T1 sequence (P41597 1-360 isoform P41597-2): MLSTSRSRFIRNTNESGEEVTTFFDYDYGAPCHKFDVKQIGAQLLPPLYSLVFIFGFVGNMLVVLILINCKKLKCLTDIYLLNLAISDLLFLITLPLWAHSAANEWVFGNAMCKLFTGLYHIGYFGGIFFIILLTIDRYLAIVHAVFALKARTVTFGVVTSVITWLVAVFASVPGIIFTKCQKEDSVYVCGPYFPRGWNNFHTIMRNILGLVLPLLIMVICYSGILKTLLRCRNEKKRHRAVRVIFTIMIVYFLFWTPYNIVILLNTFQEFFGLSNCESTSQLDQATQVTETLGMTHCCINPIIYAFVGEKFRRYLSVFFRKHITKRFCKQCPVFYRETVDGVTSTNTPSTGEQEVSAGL
Briefly: CCR2 receptor membrane binding assay ([125I]MCP-1, THP-1 cell membranes, SPA beads). The following applies: @ 10 μM test compound; THP-1 membranes; read-out: CCR2 % ctrl @ 10 μM. As for the experimental part:
The above exemplary substances have been tested for binding to CCR2 using a binding assay as outlined herein below:
THP-1 cells (human acute monocytic leukaemia cells) were cultured under standardized conditions at 37° C. and 5% CO2 in a humidified incubator. THP-1 cells were cultivated in RPMI 1640 medium (Gibco 21875) containing 1% MEM-NEAA (Gibso 11140) 2 mM L-glutamine, 1.5 g/L sodium bicarbonate, 4.5 g/L glucose, 10 mM HEPES and 1.0 mM sodium pyruvate, 90%; 10% fetal calf serum (FCS Gibco 10500-064).
Membranes were prepared from THP-1 cells. THP-1 cells were centrifuged at 300×g at 4° C. for 10 min. The cell pellet was resuspendet in Phosphate Buffer Saline (PBS, including 10 μM Pefabloc and a protease inhibitor mix ‘complete’, Boehringer Mannheim (1 tablet/50 ml)), to a concentration of […]. The membrane preparation was performed by disrupting the cells by nitrogen […] (at 50 bar, for 1 h) in a “Nitrogen Bombe” (Parr Instrument). Cell debris was removed by centrifugation (800×g at 4° C., 1 min). The supernatant was centrifuged at 80000×g, 4° C. for 30 min to sediment the cell membranes. Usually 50 mg of protein (Bradford assay) were yielded from 1×10E9 cells. The membranes were resuspendet in 25 mM HEPES, 25 mM MgCl2, 1 mM CaCl2, 10% Glycerine for storage in aliquots at −80° C. in 25 mM HEPES, 25 mM MgCl2, 1 mM CaCl2, 10% Glycerine and stored at −80° C.
Receptor Membrane Binding Assay:
Perkin Elmer NEX 332 Jod 125 MCP-1, Stock: 2200 Ci/mmol solved in 2000 μl assay buffer, stored at −20° C. THP-1 membrane were adjusted with 25 mM HEPES, pH 7.2; 5 mM MgCl2; 0.5 mM CaCl2; 0.2% BSA assay buffer to a concentration of […]. Amersham Biosciences PVT-WGA Beads (RPNQ0001) were adjusted with assay buffer to a concentration of 0.24 mg/30 μl. For preparation of the membrane-bead-suspension membranes and beads were incubated for 30 min at RT under rotation (60 rpm) with a ratio of 1:2. Test compounds dissolved in 100% DMSO to a concentration of 10 mM and are further diluted with 100% DMSO to 1 mM. All additional compound dilutions were obtained with assay buffer, final 1% DMSO. Compounds, membrane-bead-suspension and [125I]MCP-1 (ca. 25000 cpm/10 μl) were incubated. Bound radioactivity was determined by scintillation counter after 8 h. Determination of affinity of test compounds (dissociation constant hKi) is calculated by iterative fitting of experimental data using the “easy sys” program, which is based on law of mass action (Schittkowski K. (1994), Numerische Mathematik, Vol. 68, 129-142).
In the case of `CCS(=O)(=O)N(C)C1CCN(C2CCN(C(=O)c3ncnc(NCC4CCN(c5ccccc5)CC4)c3C)CC2)CC1` [Example 40], the remaining activity at 10 µM stood at 9%.

Take `CCS(=O)(=O)N(C)C1CCN(C2CCN(C(=O)c3ncnc(NC[C@H]4CCN(c5ccccc5)C4)c3C)CC2)CC1` [Example 41]: the remaining activity at 10 µM turned out to be 6%.

On to `Cc1c(NCC2CCCN(c3ccccc3)C2)ncnc1C(=O)N1CCC(N2CCOCC2)CC1` (centres unmarked) [Example 42], for which the remaining activity at 10 µM stood at 16%.

Regarding `Cc1ccc(CNc2ncnc(C(=O)N3CCC(N4CCOCC4)CC3)c2C)cc1Cl` [Example 43], the remaining activity at 10 µM was determined as 17%.

Consider `Cc1ccc(CNc2ncnc(C(=O)N3CCC(N4CCOCC4)CC3)c2C)cc1F` [Example 44], for which the remaining activity at 10 µM was 27%.

In the case of `Cc1c(NCc2ccc(Cl)c(F)c2)ncnc1C(=O)N1CCC(N2CCOCC2)CC1` [Example 45], the remaining activity at 10 µM worked out at 17%.

Consider `Cc1c(NCC2Cc3ccccc3C2)ncnc1C(=O)N1CCC(N2CCOCC2)CC1` [Example 46], for which the remaining activity at 10 µM came to 12%.

With `Cc1c(NCc2ccc(C(F)(F)F)c(Cl)c2)ncnc1C(=O)N1CCC(N2CCOCC2)CC1` [Example 47], the remaining activity at 10 µM is 14%.

`Cc1c(NCc2ccc(F)c(F)c2)ncnc1C(=O)N1CCC(N2CCOCC2)CC1` [Example 48]: the remaining activity at 10 µM came to 26%.

As for `Cc1c(NCc2ccc(Cl)cc2)ncnc1C(=O)N1CCC(N2CCC(N(C)S(C)(=O)=O)CC2)CC1` [Example 49], the remaining activity at 10 µM turned out to be 7%.

As for `Cc1c(NCC2COc3ccccc3C2)ncnc1C(=O)N1CCC(N2CCOCC2)CC1` (centres unmarked) [Example 50], the remaining activity at 10 µM was determined as 22%.

For the molecule `Cc1c(NCC2CCN(c3ccccc3)C2)ncnc1C(=O)N1CCC(N2CCOCC2)CC1` (centres unmarked) [Example 51], the remaining activity at 10 µM was 13%.

As for `Cc1c(NCc2ccc(C(C)(C)C)cc2)ncnc1C(=O)N1CCC(N2CCOCC2)CC1` [Example 52], the remaining activity at 10 µM turned out to be 12%.

Take `Cc1c(NCCc2ccc(Cl)c(Cl)c2)ncnc1C(=O)N1CCC(N2CCC(N(C)S(C)(=O)=O)CC2)CC1` [Example 53]: the remaining activity at 10 µM was determined as 4%.

Consider `Cc1c(NCc2ccc(C(C)(C)C)nc2)ncnc1C(=O)N1CCC(N2CCC(N(C)S(C)(=O)=O)CC2)CC1` [Example 54], for which the remaining activity at 10 µM turned out to be 13%.

In the case of `Cc1cc(CNc2ncnc(C(=O)N3CCC(N4CCC(N(C)S(C)(=O)=O)CC4)CC3)c2C)ccc1F` [Example 55], the remaining activity at 10 µM came to 17%.

For the molecule `CCc1ccc(CNc2ncnc(C(=O)N3CCC(N4CCC(N(C)S(C)(=O)=O)CC4)CC3)c2C)cc1` [Example 56], the remaining activity at 10 µM amounted to 8%.

As for `Cc1c(NCC2COc3ccccc3C2)ncnc1C(=O)N1CCC(N2CCC(N(C)S(C)(=O)=O)CC2)CC1` (centres unmarked) [Example 57], the remaining activity at 10 µM was found to be 10%.

Take `Cc1c(NCC2CCN(c3ccccc3)CC2)ncnc1C(=O)N1CCC(N2CCC(N(C)S(C)(=O)=O)CC2)CC1` [Example 58]: the remaining activity at 10 µM was 12%.

Still in this assay, the particulars now being: dissociation constant hKi; [125I]MCP-1 binding to THP-1 membranes.
In general, Ki refers to a dissociation constant, usually derived from enzyme kinetics or from competition with a known ligand. Molecule `CCS(=O)(=O)N(C)C1CCN(C2CCN(C(=O)c3ncnc(NCC4CCN(c5ccccc5)CC4)c3C)CC2)CC1` [Example 40] displayed a Ki of 174 nM.

Turning to `CCS(=O)(=O)N(C)C1CCN(C2CCN(C(=O)c3ncnc(NC[C@H]4CCN(c5ccccc5)C4)c3C)CC2)CC1` [Example 41], the Ki came to 11 nM.

As for `Cc1c(NCC2CCCN(c3ccccc3)C2)ncnc1C(=O)N1CCC(N2CCOCC2)CC1` (centres unmarked) [Example 42], the affinity, expressed as Ki, was 433 nM.

On to `Cc1ccc(CNc2ncnc(C(=O)N3CCC(N4CCOCC4)CC3)c2C)cc1Cl` [Example 43], for which the Ki was 566 nM.

As to `Cc1ccc(CNc2ncnc(C(=O)N3CCC(N4CCOCC4)CC3)c2C)cc1F` [Example 44], the Ki is 1640 nM.

The molecule `Cc1c(NCc2ccc(Cl)c(F)c2)ncnc1C(=O)N1CCC(N2CCOCC2)CC1` [Example 45] displayed a Ki of 501 nM.

Consider `Cc1c(NCC2Cc3ccccc3C2)ncnc1C(=O)N1CCC(N2CCOCC2)CC1` [Example 46], for which the inhibitory constant (Ki) was found to be 225 nM.

The molecule `Cc1c(NCc2ccc(C(F)(F)F)c(Cl)c2)ncnc1C(=O)N1CCC(N2CCOCC2)CC1` [Example 47] returned a Ki of 222 nM.

The molecule `Cc1c(NCc2ccc(F)c(F)c2)ncnc1C(=O)N1CCC(N2CCOCC2)CC1` [Example 48] displayed a Ki of 1780 nM.

The molecule `Cc1c(NCc2ccc(Cl)cc2)ncnc1C(=O)N1CCC(N2CCC(N(C)S(C)(=O)=O)CC2)CC1` [Example 49] returned a Ki of 97 nM.

`Cc1c(NCC2COc3ccccc3C2)ncnc1C(=O)N1CCC(N2CCOCC2)CC1` (centres unmarked) [Example 50] displayed a Ki of 928 nM.

Take `Cc1c(NCC2CCN(c3ccccc3)C2)ncnc1C(=O)N1CCC(N2CCOCC2)CC1` (centres unmarked) [Example 51]: the inhibition constant (Ki) is 290 nM.

Consider `Cc1c(NCc2ccc(C(C)(C)C)cc2)ncnc1C(=O)N1CCC(N2CCOCC2)CC1` [Example 52], for which the inhibition constant (Ki) came out at 175 nM.

`Cc1c(NCCc2ccc(Cl)c(Cl)c2)ncnc1C(=O)N1CCC(N2CCC(N(C)S(C)(=O)=O)CC2)CC1` [Example 53] had an inhibition constant (Ki) of 18 nM.

With `Cc1c(NCc2ccc(C(C)(C)C)nc2)ncnc1C(=O)N1CCC(N2CCC(N(C)S(C)(=O)=O)CC2)CC1` [Example 54], the affinity corresponds to a Ki of 356 nM.

In the case of `Cc1cc(CNc2ncnc(C(=O)N3CCC(N4CCC(N(C)S(C)(=O)=O)CC4)CC3)c2C)ccc1F` [Example 55], the Ki stood at 200 nM.

With `CCc1ccc(CNc2ncnc(C(=O)N3CCC(N4CCC(N(C)S(C)(=O)=O)CC4)CC3)c2C)cc1` [Example 56], the Ki stood at 127 nM.

In turn, `Cc1c(NCC2COc3ccccc3C2)ncnc1C(=O)N1CCC(N2CCC(N(C)S(C)(=O)=O)CC2)CC1` (centres unmarked) [Example 57] displayed an inhibitory constant (Ki) of 93 nM.

`Cc1c(NCC2CCN(c3ccccc3)CC2)ncnc1C(=O)N1CCC(N2CCC(N(C)S(C)(=O)=O)CC2)CC1` [Example 58]: affinity was put at a Ki of 336 nM.
